Source: patent US20080009418A1, “Selective Inhibitors” (Alchemia LTD., priority 2004, published 2008)

Experiments:
Human neurokinin (NK1) = target: T1, Human neurokinin (NK1) (Homo sapiens, UniProt P25103); assay: Radioligand binding, human neurokinin NK1 membranes, filtration, [125I]-Substance P; details: compound at 10 μM; human neurokinin NK1 membranes
T1 construct: purchased Perkin Elmer Biosignal
Outline: (§1)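 Percent inhibition of radioligand binding measured on recombinant human membranes: NK1 with [125I]-Substance P, KOP with [3H]-Diprenorphine. Incubation 1 h at room temperature, then harvest onto 0.3% PEI-soaked filters, cold Tris-HCl pH 7.4 washes and scintillation counting; non-specific binding from reference ligand wells.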

Human Melanocortin (MC4) = target: T2, Human Melanocortin (MC4) (Homo sapiens, UniProt P32245); assay: Radioligand binding, human melanocortin MC4 membranes, FlashPlate, [125I]-NDP-αMSH; details: compound at 10 μM; human melanocortin MC4 membranes
T2 construct: purchased Perkin Elmer Biosignal
T2 sequence (P32245 whole entry): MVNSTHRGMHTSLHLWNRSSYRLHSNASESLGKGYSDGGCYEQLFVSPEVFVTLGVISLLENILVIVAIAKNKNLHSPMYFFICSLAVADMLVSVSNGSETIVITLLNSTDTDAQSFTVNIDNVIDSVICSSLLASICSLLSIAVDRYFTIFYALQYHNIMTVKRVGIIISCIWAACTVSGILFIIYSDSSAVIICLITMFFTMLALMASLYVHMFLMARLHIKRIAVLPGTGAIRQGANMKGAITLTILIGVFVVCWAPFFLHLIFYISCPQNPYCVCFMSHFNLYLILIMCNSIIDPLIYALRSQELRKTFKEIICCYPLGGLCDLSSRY
Outline: (§2)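 Cloned human receptor membranes were coated onto FlashPlate wells and incubated with radioligand and compound (added from a 0.5 mM DMSO daughter plate) for 1 hour at room temperature in the dark. Scintillation counting gave percent inhibition, with DMSO defining total and reference ligand defining non-specific binding.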

Human opioid (ORL1) = target: T3, Human opioid (ORL1) (Homo sapiens, UniProt P41146); assay: Radioligand binding, human opioid ORL1 membranes, FlashPlate, [125I]-Nociceptin; details: compound at 10 μM; human ORL1 membranes
T3 construct: purchased Perkin Elmer Biosignal
T3 sequence (P41146 whole entry): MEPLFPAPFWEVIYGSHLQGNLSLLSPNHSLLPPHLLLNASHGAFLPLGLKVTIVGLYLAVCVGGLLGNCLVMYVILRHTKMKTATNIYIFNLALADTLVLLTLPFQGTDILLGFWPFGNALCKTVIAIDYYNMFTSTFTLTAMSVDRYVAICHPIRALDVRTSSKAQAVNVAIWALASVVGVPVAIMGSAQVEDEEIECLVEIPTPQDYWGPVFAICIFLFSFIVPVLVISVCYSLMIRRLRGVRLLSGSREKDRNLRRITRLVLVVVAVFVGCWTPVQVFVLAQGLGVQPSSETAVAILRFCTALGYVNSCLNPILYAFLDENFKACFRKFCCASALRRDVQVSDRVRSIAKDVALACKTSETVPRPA
Outline: as §2

Human melanocortin (MC5) = target: T4, Human melanocortin (MC5) (Homo sapiens, UniProt P33032); assay: Radioligand binding, human melanocortin MC5 membranes, FlashPlate, [125I]-NDP-αMSH; details: compound at 10 μM; human melanocortin MC5 membranes
T4 construct: purchased Perkin Elmer Biosignal
T4 sequence (P33032 whole entry): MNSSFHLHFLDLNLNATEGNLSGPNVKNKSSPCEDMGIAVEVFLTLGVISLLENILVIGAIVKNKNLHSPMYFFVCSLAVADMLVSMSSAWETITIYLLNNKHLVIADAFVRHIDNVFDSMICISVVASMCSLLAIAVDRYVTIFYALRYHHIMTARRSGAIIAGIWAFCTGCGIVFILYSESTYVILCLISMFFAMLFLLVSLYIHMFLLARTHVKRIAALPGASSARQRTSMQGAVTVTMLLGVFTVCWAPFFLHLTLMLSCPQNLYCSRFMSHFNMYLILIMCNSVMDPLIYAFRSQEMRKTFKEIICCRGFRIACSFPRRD
Outline: as §2

[1] = target: T5, Human neuropeptide Y (NPY-Y1) (Homo sapiens, UniProt P25929); assay: Radioligand binding, human neuropeptide Y NPY-Y1 membranes, FlashPlate, [125I]-PYY; details: compound at 10 μM; human NPY-Y1 membranes
T5 construct: purchased Perkin Elmer Biosignal
T5 sequence (P25929 1-384): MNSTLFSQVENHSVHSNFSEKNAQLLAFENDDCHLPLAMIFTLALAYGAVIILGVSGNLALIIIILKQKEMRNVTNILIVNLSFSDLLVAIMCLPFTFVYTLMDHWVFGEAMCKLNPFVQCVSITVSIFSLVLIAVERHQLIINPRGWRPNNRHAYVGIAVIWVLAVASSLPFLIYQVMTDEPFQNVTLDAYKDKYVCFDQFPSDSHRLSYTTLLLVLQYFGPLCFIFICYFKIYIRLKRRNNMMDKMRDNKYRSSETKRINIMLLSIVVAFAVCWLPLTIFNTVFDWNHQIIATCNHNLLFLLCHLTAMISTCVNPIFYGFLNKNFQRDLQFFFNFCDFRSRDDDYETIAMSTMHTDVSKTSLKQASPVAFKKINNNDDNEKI
Outline: as §2

Human κ-Opioid (KOP) = target: T6, Human κ-Opioid (KOP) (Homo sapiens, UniProt P41145); assay: Radioligand binding, human κ-opioid (KOP) membranes, filtration, [3H]-Diprenorphine; details: compound at 10 μM; human κ-opioid (KOP) membranes
T6 construct: purchased Perkin Elmer Biosignal
T6 sequence (P41145 whole entry): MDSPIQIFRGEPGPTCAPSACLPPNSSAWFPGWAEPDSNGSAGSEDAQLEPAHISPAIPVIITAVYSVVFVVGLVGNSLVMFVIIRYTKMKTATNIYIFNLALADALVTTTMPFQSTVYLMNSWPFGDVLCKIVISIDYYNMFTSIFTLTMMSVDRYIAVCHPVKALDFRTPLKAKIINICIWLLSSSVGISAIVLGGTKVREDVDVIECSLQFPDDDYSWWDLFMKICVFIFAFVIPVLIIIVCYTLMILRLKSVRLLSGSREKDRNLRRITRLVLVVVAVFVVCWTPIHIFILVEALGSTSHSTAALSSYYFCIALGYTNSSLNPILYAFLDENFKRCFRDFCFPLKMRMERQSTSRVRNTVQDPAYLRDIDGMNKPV
Outline: as §1

[2] = target: T7, Human melanin-concentrating hormone (MCH1) (Homo sapiens, UniProt Q99705); assay: Radioligand binding, human melanin-concentrating hormone MCH1 membranes, FlashPlate, [125I]-S36057; details: compound at 10 μM; human MCH1 membranes
T7 construct: purchased Perkin Elmer Biosignal
T7 sequence (Q99705 whole entry): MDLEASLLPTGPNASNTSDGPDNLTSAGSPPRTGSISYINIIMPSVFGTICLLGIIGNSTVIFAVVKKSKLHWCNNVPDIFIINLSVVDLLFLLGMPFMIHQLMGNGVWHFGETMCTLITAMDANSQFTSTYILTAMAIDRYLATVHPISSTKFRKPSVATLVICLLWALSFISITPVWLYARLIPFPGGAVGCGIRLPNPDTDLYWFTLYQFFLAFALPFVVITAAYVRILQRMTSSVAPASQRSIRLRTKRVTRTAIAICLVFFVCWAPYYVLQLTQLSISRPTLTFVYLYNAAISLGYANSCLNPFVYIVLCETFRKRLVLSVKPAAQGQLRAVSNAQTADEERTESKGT
Outline: as §2

Human μ-opioid (MOP) = target: T8, Human μ-opioid (MOP) (Homo sapiens, UniProt P35372); assay: Radioligand binding, human μ-opioid (MOP) membranes, FlashPlate, [3H]-Naloxone; details: compound at 10 μM; human μ-opioid (MOP) membranes
T8 construct: purchased Perkin Elmer Biosignal
T8 sequence (P35372 whole entry): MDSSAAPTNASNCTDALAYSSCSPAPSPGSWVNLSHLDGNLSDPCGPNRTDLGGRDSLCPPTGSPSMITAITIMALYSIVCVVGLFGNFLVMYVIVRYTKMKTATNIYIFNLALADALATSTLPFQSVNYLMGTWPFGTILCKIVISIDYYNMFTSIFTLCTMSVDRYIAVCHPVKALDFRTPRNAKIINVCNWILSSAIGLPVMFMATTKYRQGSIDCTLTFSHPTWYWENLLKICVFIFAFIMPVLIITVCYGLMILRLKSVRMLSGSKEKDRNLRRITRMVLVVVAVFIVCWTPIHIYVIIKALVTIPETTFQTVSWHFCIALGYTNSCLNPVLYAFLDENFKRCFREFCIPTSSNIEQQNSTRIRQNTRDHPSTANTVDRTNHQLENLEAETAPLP
Outline: as §2

Human δ-opioid (DOP) = target: T9, Human δ-opioid (DOP) (Homo sapiens, UniProt P41143); assay: Radioligand binding, human δ-opioid (DOP) membranes, FlashPlate, [3H]-Bremazocine; details: compound at 10 μM; human δ-opioid (DOP) membranes
T9 construct: purchased Perkin Elmer Biosignal
T9 sequence (P41143 whole entry): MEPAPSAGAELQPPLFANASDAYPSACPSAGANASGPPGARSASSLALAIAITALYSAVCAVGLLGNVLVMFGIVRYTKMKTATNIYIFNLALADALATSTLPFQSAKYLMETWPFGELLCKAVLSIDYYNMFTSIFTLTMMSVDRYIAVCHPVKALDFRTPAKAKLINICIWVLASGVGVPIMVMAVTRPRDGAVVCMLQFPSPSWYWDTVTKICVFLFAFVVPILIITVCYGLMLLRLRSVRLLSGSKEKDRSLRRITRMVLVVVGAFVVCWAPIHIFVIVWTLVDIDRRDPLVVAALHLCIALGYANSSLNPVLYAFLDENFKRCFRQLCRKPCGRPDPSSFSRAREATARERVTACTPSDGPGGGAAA
Outline: as §2

Human Melanocortin (MC3) = target: T10, Human Melanocortin (MC3) (Homo sapiens, UniProt P41968); assay: Radioligand binding, human melanocortin MC3 membranes, FlashPlate, [125I]-NDP-αMSH; details: compound at 10 μM; human melanocortin MC3 membranes
T10 construct: purchased Perkin Elmer Biosignal
T10 sequence (P41968 whole entry): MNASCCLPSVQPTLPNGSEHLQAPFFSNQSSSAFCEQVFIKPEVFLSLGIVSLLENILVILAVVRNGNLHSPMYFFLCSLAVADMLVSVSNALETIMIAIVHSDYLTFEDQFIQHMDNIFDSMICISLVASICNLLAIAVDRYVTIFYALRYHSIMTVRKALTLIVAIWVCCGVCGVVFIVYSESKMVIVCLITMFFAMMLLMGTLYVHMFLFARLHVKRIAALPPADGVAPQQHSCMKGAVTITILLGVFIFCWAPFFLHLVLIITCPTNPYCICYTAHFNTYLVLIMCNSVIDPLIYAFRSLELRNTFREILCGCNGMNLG
Outline: as §2

Mouse urotensin (mUR2) = target: T11, Mouse urotensin (mUR2) (Mus musculus, UniProt Q8VIH9); assay: Radioligand binding, mouse urotensin mUR2 membranes, FlashPlate, [125I]-Urotensin II; details: compound at 10 μM; mouse urotensin mUR2 membranes
T11 construct: purchased Perkin Elmer Biosignal
T11 sequence (Q8VIH9 1-385): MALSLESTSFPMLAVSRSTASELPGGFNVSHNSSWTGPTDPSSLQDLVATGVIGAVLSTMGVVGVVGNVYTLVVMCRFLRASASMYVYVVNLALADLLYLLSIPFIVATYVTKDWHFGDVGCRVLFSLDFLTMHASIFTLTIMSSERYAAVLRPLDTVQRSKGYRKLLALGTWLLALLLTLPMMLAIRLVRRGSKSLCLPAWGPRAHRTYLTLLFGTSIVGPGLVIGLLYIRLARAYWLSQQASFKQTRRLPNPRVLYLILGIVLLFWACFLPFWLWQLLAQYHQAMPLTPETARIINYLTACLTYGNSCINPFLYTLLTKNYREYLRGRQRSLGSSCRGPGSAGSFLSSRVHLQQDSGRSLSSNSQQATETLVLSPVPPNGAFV
Outline: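 Cloned mouse urotensin (mUR2) receptor membranes from Perkin Elmer Biosignal were immobilized in FlashPlate microplates using a proprietary coating. Each well got 19.5 μl buffer, then 0.5 μl of DMSO, reference ligand, or compound. Adding 5 μl of [125I]-Urotensin II, diluted to 5× final concentration in binding buffer, started binding. Plates were sealed with TopSeal-A and incubated 1 hour at room temperature in the dark. Wells were counted for 30 seconds each on a TopCount after a 60-second delay, and percentage inhibition was calculated.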

T1 sequence (P25103 whole entry): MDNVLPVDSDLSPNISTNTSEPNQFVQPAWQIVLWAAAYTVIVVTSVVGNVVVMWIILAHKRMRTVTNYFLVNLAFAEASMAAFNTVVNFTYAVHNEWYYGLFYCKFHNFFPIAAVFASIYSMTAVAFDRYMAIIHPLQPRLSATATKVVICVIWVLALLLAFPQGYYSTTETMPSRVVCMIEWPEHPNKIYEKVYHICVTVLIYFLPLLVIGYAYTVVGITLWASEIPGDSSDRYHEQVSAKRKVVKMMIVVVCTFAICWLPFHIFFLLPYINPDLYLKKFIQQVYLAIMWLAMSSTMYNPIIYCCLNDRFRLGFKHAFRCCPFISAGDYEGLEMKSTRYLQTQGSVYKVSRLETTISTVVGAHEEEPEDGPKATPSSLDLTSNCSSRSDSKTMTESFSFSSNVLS

Compound | A8 radioligand binding inhibition (Human neurokinin (NK1)) | A4 radioligand binding inhibition (Human Melanocortin (MC4)) | A10 radioligand binding inhibition (Human opioid (ORL1)) | A5 radioligand binding inhibition (Human melanocortin (MC5)) | A9 radioligand binding inhibition [1] | A2 radioligand binding inhibition (Human κ-Opioid (KOP)) | A6 radioligand binding inhibition [2] | A7 radioligand binding inhibition (Human μ-opioid (MOP)) | A1 radioligand binding inhibition (Human δ-opioid (DOP)) | A3 radioligand binding inhibition (Human Melanocortin (MC3)) | A11 radioligand binding inhibition (Mouse urotensin (mUR2))
CO[C@H]1[C@H](O)[C@@H](COCc2ccc(-c3ccccc3)cc2)OC(OCc2ccc3ccccc3c2)[C@@H]1NC(=O)CCCN (stereo partly drawn) [compound 68] | + (“+” indicates greater than 50% inhibition at 10 μM) | + (“+” indicates greater than 50% inhibition at 10 μM) | − (“−” indicates less than 50% inhibition at 10 μM) | + (“+” indicates greater than 50% inhibition at 10 μM) | − (“−” indicates less than 50% inhibition at 10 μM) | − (“−” indicates less than 50% inhibition at 10 μM) | + (“+” indicates greater than 50% inhibition at 10 μM) | − (“−” indicates less than 50% inhibition at 10 μM) | − (“−” indicates less than 50% inhibition at 10 μM) | + (“+” indicates greater than 50% inhibition at 10 μM) | − (“−” indicates less than 50% inhibition at 10 μM)
CO[C@H]1[C@H](O)[C@@H](COCc2ccc(-c3ccccc3)cc2)OC(OCc2ccc3ccccc3c2)[C@@H]1NC(=O)CCCNC(=N)N (stereo partly drawn) [compound 69] | + (“+” indicates greater than 50% inhibition at 10 μM) | + (“+” indicates greater than 50% inhibition at 10 μM) | + (“+” indicates greater than 50% inhibition at 10 μM) | + (“+” indicates greater than 50% inhibition at 10 μM) | − (“−” indicates less than 50% inhibition at 10 μM) | − (“−” indicates less than 50% inhibition at 10 μM) | + (“+” indicates greater than 50% inhibition at 10 μM) | + (“+” indicates greater than 50% inhibition at 10 μM) | − (“−” indicates less than 50% inhibition at 10 μM) | + (“+” indicates greater than 50% inhibition at 10 μM) | − (“−” indicates less than 50% inhibition at 10 μM)
CO[C@H]1[C@H](O)[C@@H](COCc2ccc3ccccc3c2)OC(OCc2ccc3ccccc3c2)[C@@H]1NC(=O)CNC(=N)N (stereo partly drawn) [compound 70] | + (“+” indicates greater than 50% inhibition at 10 μM) | + (“+” indicates greater than 50% inhibition at 10 μM) | − (“−” indicates less than 50% inhibition at 10 μM) | + (“+” indicates greater than 50% inhibition at 10 μM) | − (“−” indicates less than 50% inhibition at 10 μM) | − (“−” indicates less than 50% inhibition at 10 μM) | − (“−” indicates less than 50% inhibition at 10 μM) | + (“+” indicates greater than 50% inhibition at 10 μM) | − (“−” indicates less than 50% inhibition at 10 μM) | + (“+” indicates greater than 50% inhibition at 10 μM) | − (“−” indicates less than 50% inhibition at 10 μM)
